Columns and labels:
Format in all cases: cell-based
[1] = tested on: S. aureus ATCC 29213; assay: Ethidium bromide efflux fluorescence assay; conditions: EPIs at 4 times MEC for EtBr, A-106 at 100 μg/ml; versus control cells without EPI
Method: S. aureus cells were loaded with EtBr as described in Example 1. EPIs were used at 4XMEC (minimal effective concentration) (25 μg/ml reserpine; 100 μg/ml VX-710 (compound A-106 in Table A-2); 6.25 μg/ml VX-853 (compound C-9 in Table C-I), and no EPI control—as labeled). Fluorescence was continuously monitored over time at room temperature and results are an average of at least 3 replicates.
Ethidium bromide (EtBr) efflux assays with S. aureus were performed using the method described by Markham et al. (Markham, et al., “Multiple Novel Inhibitors of the NorA Multidrug Transporter of Staphylococcus aureus”, Antimicrob. Agents Chemother. 43:2404-2408 (1999)). […] Ethidium bromide efflux was determined by continuously monitoring fluorescence at an excitation wavelength of 530 nm and an emission wavelength of 600 nm in a black 96-well polystyrene plate with clear, flat bottom (Costar #3904, Cambridge, Mass.) using a SpectraMax Gemini spectrofluorimeter (Molecular Devices, Sunnydale, Calif.). […]
Markham et al., “Multiple Novel Inhibitors of the NorA Multidrug Transporter of Staphylococcus aureus”, Antimicrob. […] Since ethidium only fluoresces when it is bound to nucleic acid inside of cells, a decrease in fluorescence over time is due to active efflux. […]

[2] = tested on: E. faecalis clinical isolates; assay: MIC90 studies: fluoroquinolone susceptibility of clinical isolate panel with EPI; conditions: EPI at 50 μg/ml
Method in brief: (§1)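 Fluoroquinolone MICs with efflux pump inhibitor measured against panels of resistant clinical isolates by NCCLS protocols. MIC90 taken across each panel. Oxacillin and vancomycin MICs run alongside to flag methicillin-resistant S. aureus and vancomycin-resistant E. faecalis isolates.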

[3] = tested on: S. aureus clinical isolates; assay: as above; conditions: EPI at 50 μg/ml
Method in brief: as §1

[4] = tested on: wild type gram negative organisms (E. coli, P. aeruginosa, and H. influenzae); assay: MIC of EtBr in presence and absence of EPI; conditions: all wild type gram-negative organisms, compared with gram-positive
Excerpt: EtBr is a general substrate for many different efflux pumps in bacteria. Markham et al., “Multiple Novel Inhibitors of the NorA Multidrug Transporter of Staphylococcus aureus”, Antimicrob. Agents Chemother. 43:2404-2408 (1999). Since EtBr is a non-specific DNA intercalator, the only known mechanism of resistance to EtBr is via efflux. Markham et al., “Multiple Novel Inhibitors of the NorA Multidrug Transporter of Staphylococcus aureus”, Antimicrob. Agents Chemother. 43:2404-2408 (1999).

[5] = E. faecalis clinical isolate 10
[6] = E. faecalis clinical isolate 11
[7] = E. faecalis clinical isolate 12
[8] = E. faecalis clinical isolate 13
[9] = E. faecalis clinical isolate 14
[10] = E. faecalis clinical isolate 15
[11] = E. faecalis clinical isolate 16
[12] = E. faecalis clinical isolate 17
[13] = E. faecalis clinical isolate 18
[14] = E. faecalis clinical isolate 19
[15] = E. faecalis clinical isolate 20
[16] = E. faecalis clinical isolate 21
[17] = E. faecalis clinical isolate 22
[18] = E. faecalis clinical isolate 23
[19] = E. faecalis clinical isolate 24
[20] = E. faecalis clinical isolate 25
[21] = E. faecalis clinical isolate 26

SMILES: COc1cc(C(=O)C(=O)N2CCCC[C@H]2C(=O)OC(CCCc2cccnc2)CCCc2cccnc2)cc(OC)c1OC [A-106]
- loss of EtBr fluorescence over time (FIG. 1) [1]: much more gradual loss of fluorescence
- Ciprofloxacin MIC with EPI ([2]; E. faecalis clinical isolate 1): 0.5 µg/mL
- Norfloxacin MIC with EPI ([2]; E. faecalis clinical isolate 1): 2 µg/mL
- Ciprofloxacin MIC with EPI ([2]; E. faecalis clinical isolate 2): 0.5 µg/mL
- Norfloxacin MIC with EPI ([2]; E. faecalis clinical isolate 2): 1 µg/mL
- Ciprofloxacin MIC with EPI ([2]; E. faecalis clinical isolate 3): 32 µg/mL
- Norfloxacin MIC with EPI ([2]; E. faecalis clinical isolate 3): 64 µg/mL
- Ciprofloxacin MIC with EPI ([2]; E. faecalis clinical isolate 4): 32 µg/mL
- Norfloxacin MIC with EPI ([2]; E. faecalis clinical isolate 4): 64 µg/mL
- Ciprofloxacin MIC with EPI ([2]; E. faecalis clinical isolate 5): 32 µg/mL
- Norfloxacin MIC with EPI ([2]; E. faecalis clinical isolate 5): 64 µg/mL
- Ciprofloxacin MIC with EPI ([2]; E. faecalis clinical isolate 6): 0.5 µg/mL
- Norfloxacin MIC with EPI ([2]; E. faecalis clinical isolate 6): 1 µg/mL
- Ciprofloxacin MIC with EPI ([2]; E. faecalis clinical isolate 7): 0.5 µg/mL
- Norfloxacin MIC with EPI ([2]; E. faecalis clinical isolate 7): 1 µg/mL
- Ciprofloxacin MIC with EPI ([2]; E. faecalis clinical isolate 8): 32 µg/mL
- Norfloxacin MIC with EPI ([2]; E. faecalis clinical isolate 8): 64 µg/mL
- Ciprofloxacin MIC with EPI ([2]; E. faecalis clinical isolate 9): 1 µg/mL
- Norfloxacin MIC with EPI ([2]; E. faecalis clinical isolate 9): 2 µg/mL
- Ciprofloxacin MIC with EPI [2, 5]: 16 µg/mL
- Norfloxacin MIC with EPI [2, 5]: 32 µg/mL
- Ciprofloxacin MIC with EPI [2, 6]: 16 µg/mL
- Norfloxacin MIC with EPI [2, 6]: 64 µg/mL
- Ciprofloxacin MIC with EPI [2, 7]: 0.5 µg/mL
- Norfloxacin MIC with EPI [2, 7]: 1 µg/mL
- Ciprofloxacin MIC with EPI [2, 8]: 0.5 µg/mL
- Norfloxacin MIC with EPI [2, 8]: 1 µg/mL
- Ciprofloxacin MIC with EPI [2, 9]: 0.25 µg/mL
- Norfloxacin MIC with EPI [2, 9]: 0.5 µg/mL
- Ciprofloxacin MIC with EPI [2, 10]: 1 µg/mL
- Norfloxacin MIC with EPI [2, 10]: 2 µg/mL
- Ciprofloxacin MIC with EPI [2, 11]: 1 µg/mL
- Norfloxacin MIC with EPI [2, 11]: 2 µg/mL
- Ciprofloxacin MIC with EPI [2, 12]: 0.5 µg/mL
- Norfloxacin MIC with EPI [2, 12]: 2 µg/mL
- Ciprofloxacin MIC with EPI [2, 13]: 32 µg/mL
- Norfloxacin MIC with EPI [2, 13]: 64 µg/mL
- Ciprofloxacin MIC with EPI [2, 14]: 1 µg/mL
- Norfloxacin MIC with EPI [2, 14]: 2 µg/mL
- Ciprofloxacin MIC with EPI [2, 15]: 0.5 µg/mL
- Norfloxacin MIC with EPI [2, 15]: 2 µg/mL
- Ciprofloxacin MIC with EPI [2, 16]: 0.5 µg/mL
- Norfloxacin MIC with EPI [2, 16]: 1 µg/mL
- Ciprofloxacin MIC with EPI [2, 17]: 32 µg/mL
- Norfloxacin MIC with EPI [2, 17]: 64 µg/mL
- Ciprofloxacin MIC with EPI [2, 18]: 32 µg/mL
- Norfloxacin MIC with EPI [2, 18]: 32 µg/mL
- Ciprofloxacin MIC with EPI [2, 19]: 16 µg/mL
- Norfloxacin MIC with EPI [2, 19]: 32 µg/mL
- Ciprofloxacin MIC with EPI [2, 20]: 32 µg/mL
- Norfloxacin MIC with EPI [2, 20]: 64 µg/mL
- Ciprofloxacin MIC with EPI [2, 21]: 32 µg/mL
- Norfloxacin MIC with EPI [2, 21]: 64 µg/mL
- trend in the reduction of MICs for ciprofloxacin and norfloxacin ([2]; E. faecalis isolates, Table 5B): two-fold trend in the reduction of MICs
- change of norfloxacin MIC in combination with EPI ([3]; S. aureus isolates # 3, 6, 9): reductions in MICs
- change of ciprofloxacin MIC in combination with EPI ([3]; S. aureus isolates # 3 and 5): reductions in MICs
- isolates with >2-fold decrease in the MIC for ciprofloxacin ([3]; S. aureus isolates, Table 5A): 10/15
- isolates with >2-fold decrease in the MIC for norfloxacin ([3]; S. aureus isolates, Table 5A): 13/15
- restoration of clinical susceptibility ([3]; highly fluoroquinolone-resistant strains in the panel): insufficient to restore clinical susceptibility
- Ciprofloxacin MIC with EPI ([3]; S. aureus clinical isolate 1): 0.5 µg/mL
- Norfloxacin MIC with EPI ([3]; S. aureus clinical isolate 1): 2 µg/mL
- Ciprofloxacin MIC with EPI ([3]; S. aureus clinical isolate 2): 0.12 µg/mL
- Norfloxacin MIC with EPI ([3]; S. aureus clinical isolate 2): ≦0.25 μg/ml
- Ciprofloxacin MIC with EPI ([3]; S. aureus clinical isolate 3): ≦0.06 μg/ml
- Norfloxacin MIC with EPI ([3]; S. aureus clinical isolate 3): ≦0.25 μg/ml
- Ciprofloxacin MIC with EPI ([3]; S. aureus clinical isolate 4): 64 µg/mL
- Norfloxacin MIC with EPI ([3]; S. aureus clinical isolate 4): 128 µg/mL
- Ciprofloxacin MIC with EPI ([3]; S. aureus clinical isolate 5): ≦0.06 μg/ml
- Norfloxacin MIC with EPI ([3]; S. aureus clinical isolate 5): ≦0.25 μg/ml
- Ciprofloxacin MIC with EPI ([3]; S. aureus clinical isolate 6): 8 µg/mL
- Norfloxacin MIC with EPI ([3]; S. aureus clinical isolate 6): 8 µg/mL
- Ciprofloxacin MIC with EPI ([3]; S. aureus clinical isolate 7): ≦0.06 μg/ml
- Norfloxacin MIC with EPI ([3]; S. aureus clinical isolate 7): ≦0.25 μg/ml
- Ciprofloxacin MIC with EPI ([3]; S. aureus clinical isolate 8): 0.25 µg/mL
- Norfloxacin MIC with EPI ([3]; S. aureus clinical isolate 8): 1 µg/mL
- Ciprofloxacin MIC with EPI ([3]; S. aureus clinical isolate 9): ≦0.06 μg/ml
- Norfloxacin MIC with EPI ([3]; S. aureus clinical isolate 9): ≦0.25 μg/ml
- Ciprofloxacin MIC with EPI ([3]; S. aureus clinical isolate 10): 8 µg/mL
- Norfloxacin MIC with EPI ([3]; S. aureus clinical isolate 10): 16 µg/mL
- Ciprofloxacin MIC with EPI ([3]; S. aureus clinical isolate 11): 8 µg/mL
- Norfloxacin MIC with EPI ([3]; S. aureus clinical isolate 11): 32 µg/mL
- Ciprofloxacin MIC with EPI ([3]; S. aureus clinical isolate 12): ≦0.06 μg/ml
- Norfloxacin MIC with EPI ([3]; S. aureus clinical isolate 12): ≦0.25 μg/ml
- Ciprofloxacin MIC with EPI ([3]; S. aureus clinical isolate 13): 32 µg/mL
- Norfloxacin MIC with EPI ([3]; S. aureus clinical isolate 13): 64 µg/mL
- Ciprofloxacin MIC with EPI ([3]; S. aureus clinical isolate 14): 32 µg/mL
- Norfloxacin MIC with EPI ([3]; S. aureus clinical isolate 14): 64 µg/mL
- Ciprofloxacin MIC with EPI ([3]; S. aureus clinical isolate 15): 32 µg/mL
- Norfloxacin MIC with EPI ([3]; S. aureus clinical isolate 15): 64 µg/mL
- activity against efflux of EtBr [4]: much less active
